{"source": "patent US7553928B2", "about": "“Use of des-Aspartate-angiotensin I as an agent for the treatment and prevention of glomerulosclerosis and renal failure” (priority 2000, dated 2009)", "key": {"⅚ nephrectomized rats": {"tested_on": "⅚ nephrectomized rats", "assay": "Urine protein excretion in five-sixths nephrectomized (ablation proteinuric) rats", "type": "in vivo, Sprague Dawley rats", "conditions": "for 24-hour urinary excretion of protein, Weeks 9-16: 762 nmoles/kg/day orally for 8 weeks (weeks 9-16 post nephrectomy); for 24-hour urinary excretion of protein, Weeks 9-16 / 24-hour urinary excretion of protein, Weeks 1-8: mean ± SEM; for 24-hour urinary excretion of protein, Weeks 1-8: treatment group in weeks 1-8 post nephrectomy, before treatment started (baseline)", "experimental": "nephrectomy was carried out as described by Morrison (11). Briefly, each animal was anaesthetized with 7% w/v chloral hydrate (0.4 g/kg, i.p.). An incision was made in the ventral abdominal wall to access the kidneys. Right nephrectomy was performed and the cranial and caudal third of the left kidney were cut off. Tissue adhesive (Histoccryl, B. Braun) was used to seal the cut ends of the left kidney and prevent bleeding. In this way 5⁄6 of the renal parenchyma was removed. This model results in focal and segmental glomerulosclerosis, resembling renal lesions in humans like oligomeganephronia, membranous nephropathy, minimal change nephritis, proliferative glomerulonephritis, analgesic nephropathy, diabetes mellitus, unilateral nephrectomy, cortical necrosis, and unilateral renal agenesis (9). Following the operation, each animal was placed in a metabolic cage for 24 hours once a week for a duration of 8 weeks. The 24-hour urine output and the concentration of protein in the urine were measured. After the 8th week, the animals were randomly divided into two groups (8 animals per group). Animals in one of the group (the treatment group) were orally administered 762 nmoles/kg/day of des-Asp-angiotensin I dissolved in 0.5 ml of saline via a 1-ml syringe with a blunted needle for a period of 8 weeks. The dose of 762 nmoles/kg/day was calculated based on the maximum effective oral anti-cardiac hypertrophic dose (250 nmole per rat of average weight of 328 g) in the original parent patent. Animals in the other group (the control group) were similarly administered with 0.5 ml of saline. Weekly measurement of 24-hour urine output and the concentration of protein in the urine in these animals were carried out for another 8 weeks. The protocol was designed based on our preliminary observation that urinary excretion of protein in the 5⁄6 nephrectomized rats commenced to increase above the normal value in 7th to 8th week post nephrectomy. A repeat of the experiment with 12 nephrectomized rats per group was carried out. Data were expressed as mean±SEM. […] The accepted level of significance was p<0.05."}, "normal rats": {"tested_on": "normal rats", "assay": "Urine protein excretion in normal rats", "type": "in vivo, Sprague Dawley rats", "from_the_text": "Data were expressed as mean±SEM. […] The accepted level of significance was p<0.05."}}}
{"substance": "des-Aspartate angiotensin I [des-Asp-angiotensin I]", "values": [{"measurement": "24-hour urinary excretion of protein, Weeks 9-16", "setting": "⅚ nephrectomized rats; Table 2, first experiment, 8 rats, saline control 37.2 ± 2.3, p = 0.024", "result": "*28.7 ± 2.5 mg"}, {"measurement": "24-hour urinary excretion of protein, Weeks 1-8", "setting": "⅚ nephrectomized rats; Table 2, first experiment, 8 rats", "result": "16.4 ± 1.6", "unit": "mg"}, {"measurement": "24-hour urinary excretion of protein, Weeks 9-16", "setting": "⅚ nephrectomized rats; Table 3, repeat experiment, 12 rats, saline control 51.7 ± 4.7, p = 0.048", "result": "*39.6 ± 3.3 mg"}, {"measurement": "24-hour urinary excretion of protein, Weeks 1-8", "setting": "⅚ nephrectomized rats; Table 3, repeat experiment, 12 rats", "result": "19.9 ± 1.5", "unit": "mg"}, {"measurement": "Anti-proteinuric action (progressive development of proteinuria)", "setting": "⅚ nephrectomized rats; ablation nephropathic rats, oral dose of 762 nmoles/kg/day", "result": "effective agent in attenuating the progressive development of proteinuria"}, {"measurement": "24-hour urinary excretion of protein, Weeks 1-8", "setting": "normal rats; Table 4, normal rats, treatment group (762 nmoles/kg/day), 12 rats, mean ± SEM, saline control 18.7 ± 1.8", "result": "16.1 ± 1.7", "unit": "mg"}, {"measurement": "24-hour urinary excretion of protein, Weeks 9-16", "setting": "normal rats; Table 4, normal rats, treatment group (762 nmoles/kg/day), 12 rats, mean ± SEM, saline control 19.9 ± 2.2", "result": "17.8 ± 1.1", "unit": "mg"}, {"measurement": "Effect on urinary excretion of protein in normal rats", "setting": "normal rats; normal rats, oral dose of 762 nmoles/kg/day", "result": "no effect"}]}
